Several values for one entry are separate records, joined by “and”; a condition that tells them apart may be missing. Identical values can stand only once.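 Where inhibition never reached the appropriate level, the endpoint shown equals the highest concentration tested. Otherwise, values were interpolated linearly from a five-concentration, 48-hour dose response in 96-well plates. GI50 is the concentration that inhibits growth by half. TGI denotes the concentration required for complete inhibition of growth.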
Key:
Assay in all cases: NCI-60 cell line screen, 48 h
U251 CNS = tested on: U251 CNS
SK-MEL-5 melanoma = tested on: SK-MEL-5 melanoma
MDA-MB-231 breast = tested on: MDA-MB-231 breast
HT29 colon = tested on: HT29 colon
CCRF-CEM leukemia = tested on: CCRF-CEM leukemia
OVCAR-5 ovarian = tested on: OVCAR-5 ovarian
UACC-257 melanoma = tested on: UACC-257 melanoma
NCI-H226 lung = tested on: NCI-H226 lung
MCF7 breast = tested on: MCF7 breast
786-0 renal = tested on: 786-0 renal

SMILES	GI50 (U251 CNS)	TGI (U251 CNS)	GI50 (SK-MEL-5 melanoma) [µM]	GI50 (MDA-MB-231 breast)	TGI (MDA-MB-231 breast)	GI50 (HT29 colon)	TGI (HT29 colon)	GI50 (CCRF-CEM leukemia)	TGI (CCRF-CEM leukemia)	GI50 (OVCAR-5 ovarian) [µM]	TGI (OVCAR-5 ovarian)	GI50 (UACC-257 melanoma) [µM]	TGI (UACC-257 melanoma)	GI50 (NCI-H226 lung)	TGI (NCI-H226 lung)	GI50 (MCF7 breast)	TGI (MCF7 breast)	GI50 (786-0 renal)	TGI (786-0 renal)	TGI (SK-MEL-5 melanoma)
C/C(=C\c1ccn(-c2ccc(N)cc2F)n1)[C@@H]1C[C@@H]2O[C@]2(C)CCC[C@H](C)[C@H](O)[C@@H](C)C(=O)C(C)(C)[C@@H](O)CC(=O)O1	0.0285 µM	> 50 µM	0.0199	0.132 µM	> 50 µM	0.0173 µM	> 29 µM	0.0197 µM	> 50 µM	0.116	> 50 µM	> 50	> 50 µM	5.45 µM	> 50 µM	< 0.0119 µM	> 50 µM	0.0992 µM	> 50 µM	–
Cc1nc2sc(C(=O)Nc3cccc(Br)c3)c(N)c2cc1C(O)c1ccccc1 (stereo unspecified)	0.52 µM	> 70.9 µM	0.552	1.85 µM	16.4 µM	0.393 µM	> 82.5 µM	0.413 µM	> 43.2 µM	3.09	20.1 µM	0.847	25.2 µM	2 µM	24.3 µM	0.372 µM	17 µM	1.6 µM	18.4 µM	1.96 µM
CC[CH2][Sn]([CH2]CC)([O]C(=O)Cc1ccc(F)cc1)[O][Sn]([CH2]CC)([CH2]CC)[O]C(=O)Cc1ccc(F)cc1	0.131 µM	0.431 µM	0.472	0.406 µM	1.76 µM	0.728 µM	2.02 µM	–	1.12 µM	1.44	2.84 µM	0.204	0.869 µM	0.243 µM	0.813 µM	0.105 µM	1.02 µM	0.133 µM	0.361 µM	1.47 µM
Cn1c(=N)n[n+]([O-])c2ccccc21	–	25.3 µM and 24.1 µM	–	–	> 100 µM	–	4.88 µM and 15.1 µM	–	21.2 µM and 48.7 µM	–	3.83 µM and 7.61 µM	–	5.51 µM and 3.92 µM	–	24.8 µM and 32.4 µM	–	5.32 µM	–	16 µM and 24.8 µM	3.32 µM and 2.96 µM
Cc1nn(C)c2cc(N(C)c3ccnc(Nc4cccc(S(N)(=O)=O)c4)n3)ccc12	10.8 µM	> 25 µM	3.62	8.03 µM	> 25 µM	6.1 µM	> 25 µM	7.3 µM	> 25 µM	5.83	> 25 µM	6.54	> 25 µM	5.16 µM	> 21.3 µM	7.11 µM	> 25 µM	9.36 µM	> 25 µM	8.4 µM
CC#CC(=O)N1CC[C@@H](n2c(=O)n(-c3ccc(Oc4ccccc4)cc3)c3c(N)ncnc32)C1	35.8 µM	> 100 µM	16.9	19.5 µM	72.6 µM	34.7 µM	> 100 µM	26.2 µM	> 100 µM	46.6	> 100 µM	51.8	> 100 µM	23.1 µM	> 100 µM	23.5 µM	> 100 µM	21.5 µM	> 100 µM	38.8 µM
COc1cnc2c(c1)C(=O)c1c-2n(CCCNC(C)C)c(=O)c2cc([N+](=O)[O-])ccc12	0.0303 µM	0.158 µM	0.0461	0.157 µM	0.438 µM	0.0364 µM	1.01 µM	0.029 µM	0.658 µM	0.155	0.624 µM	0.195	1.44 µM	0.0651 µM	0.798 µM	0.0115 µM	1.07 µM	0.0351 µM	0.156 µM	0.177 µM
Nc1nc(-c2ccccc2)cc(-c2ccc(Cl)cc2)c1-c1nc2ccccc2o1	9.2 µM	21 µM	12.8	6 µM	18.9 µM	12 µM	31.7 µM	3.8 µM	17 µM	21.8	42.1 µM	19.5	35.1 µM	14.5 µM	29.2 µM	2.31 µM	16.2 µM	10.6 µM	22.3 µM	25.4 µM
COc1ccc(C2c3c(-c4ccccc4)nn(-c4ccccc4)c3Oc3ncn4nc(CC#N)nc4c32)cc1OC (stereo unspecified)	23.5 µM and 3.62 µM	63.8 µM and 16.7 µM	–	9.03 µM and 1.77 µM	22.8 µM and 4.68 µM	99.9 µM and 14.8 µM	> 100 µM	28.6 µM and > 100 µM	> 100 µM	–	> 100 µM and 13.8 µM	–	> 100 µM and 40.4 µM	15.9 µM and 2.09 µM	39 µM and 6.28 µM	36.5 µM and 99.4 µM	> 100 µM	8.4 µM and 2.09 µM	20.7 µM and 5.51 µM	> 100 µM
COc1cc(N2CCC(N3CCN(C)CC3)CC2)ccc1Nc1ncc(Cl)c(Nc2ccccc2S(=O)(=O)C(C)C)n1	1 µM	2.4 µM	1.37	0.705 µM	2.43 µM	0.0612 µM	0.617 µM	0.424 µM	5.86 µM	0.659	5.48 µM	1.23	2.58 µM	0.461 µM	2.14 µM	0.114 µM	6.75 µM	1.12 µM	2.44 µM	2.67 µM
COc1cc(C)c(NC(=O)CN(C)C)cc1Nc1nc(Nc2cccc(F)c2C(N)=O)c2cc[nH]c2n1	3.12 µM	6.86 µM	0.69	2.66 µM	6.72 µM	0.00981 µM	0.725 µM	0.403 µM	4.88 µM	0.0336	3.63 µM	0.0555	4.05 µM	2.6 µM	7.24 µM	0.0138 µM	2.9 µM	4.15 µM	8.76 µM	4.36 µM
Oc1c(CN2CCN(c3ccccc3F)CC2)cc(Br)c2cccnc12	0.529 µM	11.1 µM	0.616	0.902 µM	15.2 µM	11.3 µM	40.5 µM	0.355 µM	6.35 µM	5.36	49 µM	2.06	24.1 µM	1.17 µM	9.5 µM	0.473 µM	12.1 µM	2.42 µM	12.6 µM	> 21.4 µM
CCN1CCN(c2ccc(Nc3ncc4ccc5ncn(C(C)C)c5c4n3)nc2)CC1	0.108 µM	3.94 µM	0.153	0.111 µM	0.727 µM	0.0489 µM	15.5 µM	0.145 µM	3.63 µM	0.037	21.5 µM	0.283	27.1 µM	0.148 µM	2.67 µM	< 0.0109 µM	0.848 µM	0.102 µM	1.69 µM	0.405 µM
Cn1c(=O)c2[nH]c(CCCCc3nc4c([nH]3)c(=O)n(C)c(=S)n4C)nc2n(C)c1=S	–	> 100 µM	–	–	> 100 µM	–	> 100 µM	–	> 100 µM	–	> 100 µM	–	> 100 µM	–	> 100 µM	–	> 100 µM	–	> 100 µM	> 100 µM
Nc1ncnc2c1ncn2C1OC(COC2C(CO)OC(OC(C(=O)O)C(O)C(OP(=O)(O)O)C(O)C(=O)O)C(O)C2O)C(O)C1O (stereo unspecified)	–	> 100 µM	–	–	> 100 µM	–	> 100 µM	–	> 100 µM	–	> 100 µM	–	> 100 µM	–	> 100 µM	–	> 100 µM	–	> 100 µM	> 100 µM
Cc1cc2nc(C(Cl)Cl)nc(-c3ccccc3)n2n1	3.13 µM	24.3 µM	39.3	3.44 µM	20.9 µM	2.77 µM	13.9 µM	25.8 µM	> 100 µM	3.3	17.1 µM	7.35	34.2 µM	> 100 µM	> 100 µM	4.06 µM	> 100 µM	52.9 µM	> 100 µM	> 100 µM
Cc1ccc2c(c1)C=CC(C#N)N2C(=O)Oc1ccccc1 (stereo unspecified)	–	66.4 µM	–	–	> 100 µM	–	35.3 µM	–	40.1 µM	–	> 100 µM	–	> 100 µM	–	99.9 µM	–	40.2 µM	–	> 100 µM	> 100 µM
COC1=C(OC)[C@]2(OC)c3c(O)c(OC)c4c(c3O[C@@]23O[C@@H](c2ccccc2)CC=C3C1=O)[C@@H](O)C[C@H](c1ccccc1)O4	1.8 µM	3.55 µM	1.32	0.234 µM	0.911 µM	0.224 µM	0.565 µM	0.0545 µM	0.208 µM	1.64	3.18 µM	1.01	2.36 µM	0.286 µM	1.46 µM	0.321 µM	1.67 µM	0.171 µM	0.339 µM	2.6 µM
CCN(CC)CC[n+]1cc2cc(OC)c(OC)cc2c2ccc3cc4c(cc3c21)OCO4	0.308 µM	1.29 µM	1.31	0.709 µM	2.71 µM	0.321 µM	1.36 µM	0.325 µM	20.1 µM	1.01	3.17 µM	1.45	3.36 µM	1.35 µM	3.24 µM	0.317 µM	2.41 µM	0.903 µM	3.78 µM	2.61 µM
O=S(=O)(CCCCl)SCCCCl	–	> 69.3 µM	–	–	69.4 µM	–	62.5 µM	–	47.1 µM	–	> 94.3 µM	–	> 100 µM	–	> 100 µM	–	52.5 µM	–	33.2 µM	> 94.1 µM
N#Cc1nn(-c2cc(=O)[nH]c3ccc(Br)cc23)c(N)c1C#N	88.1 µM	> 100 µM	> 100	> 100 µM	> 100 µM	> 100 µM	> 100 µM	> 100 µM	> 100 µM	> 100	> 100 µM	> 100	> 100 µM	> 100 µM	> 100 µM	64.1 µM	> 100 µM	> 100 µM	> 100 µM	> 100 µM
Nc1ccc(-c2ccc(-c3nc4cc(Cl)c(Cl)cc4[nH]3)cc2)cc1	12 µM	> 53.1 µM	1.42	3.34 µM	> 49.6 µM	1.42 µM	> 100 µM	0.508 µM	> 52.7 µM	26.2	> 100 µM	1.38	> 60.7 µM	4.07 µM	> 41.7 µM	0.377 µM	> 100 µM	2.05 µM	18.9 µM	> 100 µM
O=C(O)CCSC(=S)Nc1ccc([N+](=O)[O-])cc1	–	> 100 µM	–	–	> 100 µM	–	> 100 µM	–	> 68.2 µM	–	> 100 µM	–	55.1 µM	–	> 100 µM	–	> 100 µM	–	> 100 µM	34.5 µM
CCCCCC/C=C1\CCC(CN(C)C)C1=O (stereo unspecified)	–	9.47 µM	–	–	18 µM	–	14.5 µM	–	7.21 µM	–	30.8 µM	–	17.7 µM	–	36.5 µM	–	14.7 µM	–	3.99 µM	27.5 µM
CC1=CC(=O)c2ccc(C)cc2C1=O	–	25.7 µM	–	–	24.2 µM	–	> 100 µM	–	12.4 µM	–	35.4 µM	–	26.6 µM	–	39.5 µM	–	11.3 µM	–	44.3 µM	15 µM
CC(C)c1ccc2nc3ccc(C(=O)NCCN4CCN(c5ccccc5)CC4)cn3c(=O)c2c1	–	> 100 µM	–	–	> 100 µM	–	> 100 µM	–	> 100 µM	–	> 100 µM	–	> 100 µM	–	> 100 µM	–	> 100 µM	–	> 100 µM	7.81 µM
CC(C)(C)c1cc(-c2nc3c(F)c(F)c(F)c(F)c3[nH]2)cc(C(C)(C)C)c1O	> 100 µM	> 100 µM	> 100	> 100 µM	> 100 µM	> 100 µM	> 100 µM	> 100 µM	> 100 µM	> 100	> 100 µM	> 100	> 100 µM	> 100 µM	> 100 µM	> 100 µM	> 100 µM	> 100 µM	> 100 µM	> 100 µM
CCCCCCNCCCNc1c2ccccc2nc2cccc([N+](=O)[O-])c12	–	0.0966 µM and 0.116 µM	–	0.0151 µM	0.0933 µM and 0.221 µM	–	0.0268 µM and 0.124 µM	0.0277 µM	0.17 µM and 0.182 µM	0.0207	0.194 µM and 0.151 µM	0.059	0.252 µM and 0.261 µM	0.0228 µM	0.274 µM and 0.148 µM	–	0.112 µM and 0.103 µM	0.0239 µM	0.0416 µM and 0.193 µM	0.0258 µM and 0.0243 µM

Source: PubChem BioAssay (NCI)
